In brackets after ≈: the same amount, converted by molar mass.
Assays:
Salmonella typhi = assay: Antibacterial activity against Salmonella typhi MTCC 98 by broth microdilution assay method; assay type: functional, Salmonella enterica subsp. enterica serovar Typhi; conditions: Salmonella enterica
Bacillus subtilis = assay: Antibacterial activity against Bacillus subtilis MTCC 441 by broth microdilution assay method; assay type: functional
Plasmodium falciparum = assay: Antimalarial activity against Plasmodium falciparum; assay type: functional
Clostridium tetani = assay: Antibacterial activity against Clostridium tetani MTCC 449 by broth microdilution assay method; assay type: functional
Escherichia coli = assay: Antibacterial activity against Escherichia coli MTCC 443 by broth microdilution assay method; assay type: functional
Vibrio cholerae = assay: Antibacterial activity against Vibrio cholerae MTCC 3906 by broth microdilution assay method; assay type: functional
[1] = system: Mycobacterium tuberculosis; assay: Antitubercular activity against Mycobacterium tuberculosis H37Rv at 6 ug/mL; assay type: functional
Streptococcus pneumoniae = assay: Antibacterial activity against Streptococcus pneumoniae MTCC 1936 by broth microdilution assay method; assay type: functional

## O=C1CCSC(c2ccc(Br)cc2)N1CCNc1ccnc2cc(Cl)ccc12 (configuration not stated)
Salmonella typhi
  MIC: 100 mg/L (≈ 210 µM)
Bacillus subtilis
  MIC: 31.2 mg/L (≈ 65.5 µM)
Plasmodium falciparum
  IC50: 0.045 mg/L (≈ 0.0944 µM)
Clostridium tetani
  MIC: 31.2 mg/L (≈ 65.5 µM)
Escherichia coli
  MIC: 125 mg/L (≈ 262 µM)
Vibrio cholerae
  MIC: 31.2 mg/L (≈ 65.5 µM)
[1]
  inhibition at 6 µg/mL: 95%
Streptococcus pneumoniae
  MIC: 62.5 mg/L (≈ 131 µM)

## O=C(NN1C(=O)CCSC1c1ccc(Cl)cc1)c1cnc2c(C(F)(F)F)cccc2c1O (configuration not stated)
Salmonella typhi
  MIC: 250 mg/L (≈ 519 µM)
Bacillus subtilis
  MIC: 62.5 mg/L (≈ 130 µM)
Plasmodium falciparum
  IC50: 0.067 mg/L (≈ 0.139 µM)
Clostridium tetani
  MIC: 125 mg/L (≈ 259 µM)
Escherichia coli
  MIC: 250 mg/L (≈ 519 µM)
Vibrio cholerae
  MIC: 125 mg/L (≈ 259 µM)
[1]
  inhibition at 6 µg/mL: 90%
Streptococcus pneumoniae
  MIC: 250 mg/L (≈ 519 µM)

## O=C(NN1C(=O)CCSC1c1ccc(Br)cc1)c1cnc2c(C(F)(F)F)cccc2c1O (configuration not stated)
Salmonella typhi
  MIC: 31.2 mg/L (≈ 59.4 µM)
Bacillus subtilis
  MIC: 62.5 mg/L (≈ 119 µM)
Plasmodium falciparum
  IC50: 0.018 mg/L (≈ 0.0342 µM)
Clostridium tetani
  MIC: 31.2 mg/L (≈ 59.4 µM)
Escherichia coli
  MIC: 125 mg/L (≈ 237 µM)
Vibrio cholerae
  MIC: 62.5 mg/L (≈ 119 µM)
[1]
  inhibition at 6 µg/mL: 98%
Streptococcus pneumoniae
  MIC: 125 mg/L (≈ 237 µM)

## COc1ccc(C2SCCC(=O)N2CCCCNc2ccnc3cc(Cl)ccc23)cc1 (configuration not stated)
Salmonella typhi
  MIC: 250 mg/L (≈ 548 µM)
Bacillus subtilis
  MIC: 250 mg/L (≈ 548 µM)
Plasmodium falciparum
  IC50: 0.81 mg/L (≈ 1.78 µM)
Clostridium tetani
  MIC: 250 mg/L (≈ 548 µM)
Escherichia coli
  MIC: 500 mg/L (≈ 1100 µM)
Vibrio cholerae
  MIC: 125 mg/L (≈ 274 µM)
[1]
  inhibition at 6 µg/mL: 48%
Streptococcus pneumoniae
  MIC: 250 mg/L (≈ 548 µM)

## O=C1CCSC(c2ccc(Cl)cc2)N1CCCNc1ccnc2cc(Cl)ccc12 (configuration not stated)
Salmonella typhi
  MIC: 250 mg/L (≈ 560 µM)
Bacillus subtilis
  MIC: 125 mg/L (≈ 280 µM)
Plasmodium falciparum
  IC50: 0.12 mg/L (≈ 0.269 µM)
Clostridium tetani
  MIC: 250 mg/L (≈ 560 µM)
Escherichia coli
  MIC: 125 mg/L (≈ 280 µM)
Vibrio cholerae
  MIC: 250 mg/L (≈ 560 µM)
[1]
  inhibition at 6 µg/mL: 67%
Streptococcus pneumoniae
  MIC: 62.5 mg/L (≈ 140 µM)

## COc1cccc(C2SCCC(=O)N2NC(=O)c2cnc3c(C(F)(F)F)cccc3c2O)c1 (configuration not stated)
Salmonella typhi
  MIC: 250 mg/L (≈ 524 µM)
Bacillus subtilis
  MIC: 250 mg/L (≈ 524 µM)
Plasmodium falciparum
  IC50: 1.7 mg/L (≈ 3.56 µM)
Clostridium tetani
  MIC: 500 mg/L (≈ 1050 µM)
Escherichia coli
  MIC: 250 mg/L (≈ 524 µM)
Vibrio cholerae
  MIC: 250 mg/L (≈ 524 µM)
[1]
  inhibition at 6 µg/mL: 65%
Streptococcus pneumoniae
  MIC: 500 mg/L (≈ 1050 µM)

## O=C1CCSC(c2ccc(O)cc2)N1CCCCNc1ccnc2cc(Cl)ccc12 (configuration not stated)
Salmonella typhi
  MIC: 250 mg/L (≈ 566 µM)
Bacillus subtilis
  MIC: 250 mg/L (≈ 566 µM)
Plasmodium falciparum
  IC50: 2.64 mg/L (≈ 5.97 µM)
Clostridium tetani
  MIC: 500 mg/L (≈ 1130 µM)
Escherichia coli
  MIC: 125 mg/L (≈ 283 µM)
Vibrio cholerae
  MIC: 250 mg/L (≈ 566 µM)
[1]
  inhibition at 6 µg/mL: 38%
Streptococcus pneumoniae
  MIC: 250 mg/L (≈ 566 µM)

## O=C1CCSC(c2cccc(Cl)c2)N1CCNc1ccnc2cc(Cl)ccc12 (configuration not stated)
Salmonella typhi
  MIC: 250 mg/L (≈ 578 µM)
Bacillus subtilis
  MIC: 250 mg/L (≈ 578 µM)
Plasmodium falciparum
  IC50: 1.57 mg/L (≈ 3.63 µM)
Clostridium tetani
  MIC: 250 mg/L (≈ 578 µM)
Escherichia coli
  MIC: 125 mg/L (≈ 289 µM)
Vibrio cholerae
  MIC: 250 mg/L (≈ 578 µM)
[1]
  inhibition at 6 µg/mL: 60%
Streptococcus pneumoniae
  MIC: 125 mg/L (≈ 289 µM)

## COc1cccc(C2SCCC(=O)N2CCCCNc2ccnc3cc(Cl)ccc23)c1 (configuration not stated)
Salmonella typhi
  MIC: 250 mg/L (≈ 548 µM)
Bacillus subtilis
  MIC: 500 mg/L (≈ 1100 µM)
Plasmodium falciparum
  IC50: 2.14 mg/L (≈ 4.69 µM)
Clostridium tetani
  MIC: 250 mg/L (≈ 548 µM)
Escherichia coli
  MIC: 250 mg/L (≈ 548 µM)
Vibrio cholerae
  MIC: 125 mg/L (≈ 274 µM)
[1]
  inhibition at 6 µg/mL: 42%
Streptococcus pneumoniae
  MIC: 500 mg/L (≈ 1100 µM)

## O=C1CCSC(c2ccc(Br)cc2)N1CCCNc1ccnc2cc(Cl)ccc12 (configuration not stated)
Salmonella typhi
  MIC: 62.5 mg/L (≈ 127 µM)
Bacillus subtilis
  MIC: 62.5 mg/L (≈ 127 µM)
Plasmodium falciparum
  IC50: 0.056 mg/L (≈ 0.114 µM)
Clostridium tetani
  MIC: 100 mg/L (≈ 204 µM)
Escherichia coli
  MIC: 125 mg/L (≈ 255 µM)
Vibrio cholerae
  MIC: 100 mg/L (≈ 204 µM)
[1]
  inhibition at 6 µg/mL: 87%
Streptococcus pneumoniae
  MIC: 62.5 mg/L (≈ 127 µM)

## CO[C@H]1/C=C/O[C@@]2(C)Oc3c(C)c(O)c4c(O)c(c(/C=N/N5CCN(C)CC5)c(O)c4c3C2=O)NC(=O)/C(C)=C\C=C\[C@H](C)[C@H](O)[C@@H](C)[C@@H](O)[C@@H](C)[C@H](OC(C)=O)[C@@H]1C [RIFAMPIN]
[1]
  inhibition at 6 µg/mL: 98%

## C=C[C@H]1CN2CC[C@H]1C[C@H]2[C@H](O)c1ccnc2ccc(OC)cc12 [QUININE]
Plasmodium falciparum
  IC50: 0.271 mg/L (≈ 0.835 µM)

## COc1cccc(C2SCCC(=O)N2CCNc2ccnc3cc(Cl)ccc23)c1 (configuration not stated)
Salmonella typhi
  MIC: 500 mg/L (≈ 1170 µM)
Bacillus subtilis
  MIC: 62.5 mg/L (≈ 146 µM)
Plasmodium falciparum
  IC50: 1.89 mg/L (≈ 4.42 µM)
Clostridium tetani
  MIC: 250 mg/L (≈ 584 µM)
Escherichia coli
  MIC: 250 mg/L (≈ 584 µM)
Vibrio cholerae
  MIC: 500 mg/L (≈ 1170 µM)
[1]
  inhibition at 6 µg/mL: 58%
Streptococcus pneumoniae
  MIC: 250 mg/L (≈ 584 µM)

## O=C(O)c1cn(C2CC2)c2cc(N3CCNCC3)c(F)cc2c1=O [CIPROFLOXACIN]
Salmonella typhi
  MIC: 25 mg/L (≈ 75.4 µM)
Escherichia coli
  MIC: 25 mg/L (≈ 75.4 µM)
Vibrio cholerae
  MIC: 25 mg/L (≈ 75.4 µM)
Streptococcus pneumoniae
  MIC: 25 mg/L (≈ 75.4 µM)

## CC1(C)S[C@@H]2[C@H](NC(=O)[C@H](N)c3ccccc3)C(=O)N2[C@H]1C(=O)O [AMPICILLIN]
Salmonella typhi
  MIC: 100 mg/L (≈ 286 µM)
Bacillus subtilis
  MIC: 250 mg/L (≈ 715 µM)
Clostridium tetani
  MIC: 250 mg/L (≈ 715 µM)
Escherichia coli
  MIC: 100 mg/L (≈ 286 µM)
Vibrio cholerae
  MIC: 100 mg/L (≈ 286 µM)
Streptococcus pneumoniae
  MIC: 100 mg/L (≈ 286 µM)

## O=C1CCSC(c2ccccc2)N1CCCCNc1ccnc2cc(Cl)ccc12 (configuration not stated)
Salmonella typhi
  MIC: 500 mg/L (≈ 1170 µM)
Bacillus subtilis
  MIC: 500 mg/L (≈ 1170 µM)
Plasmodium falciparum
  IC50: 3.12 mg/L (≈ 7.32 µM)
Clostridium tetani
  MIC: 500 mg/L (≈ 1170 µM)
Escherichia coli
  MIC: 500 mg/L (≈ 1170 µM)
Vibrio cholerae
  MIC: 500 mg/L (≈ 1170 µM)
[1]
  inhibition at 6 µg/mL: 32%
Streptococcus pneumoniae
  MIC: 500 mg/L (≈ 1170 µM)

## Cc1ccc(C2SCCC(=O)N2CCNc2ccnc3cc(Cl)ccc23)cc1 (configuration not stated)
Salmonella typhi
  MIC: 500 mg/L (≈ 1210 µM)
Bacillus subtilis
  MIC: 250 mg/L (≈ 607 µM)
Plasmodium falciparum
  IC50: 1.97 mg/L (≈ 4.78 µM)
Clostridium tetani
  MIC: 250 mg/L (≈ 607 µM)
Escherichia coli
  MIC: 250 mg/L (≈ 607 µM)
Vibrio cholerae
  MIC: 250 mg/L (≈ 607 µM)
[1]
  inhibition at 6 µg/mL: 57%
Streptococcus pneumoniae
  MIC: 500 mg/L (≈ 1210 µM)

## COc1ccc(C2SCCC(=O)N2CCNc2ccnc3cc(Cl)ccc23)cc1 (configuration not stated)
Salmonella typhi
  MIC: 250 mg/L (≈ 584 µM)
Bacillus subtilis
  MIC: 250 mg/L (≈ 584 µM)
Plasmodium falciparum
  IC50: 0.62 mg/L (≈ 1.45 µM)
Clostridium tetani
  MIC: 125 mg/L (≈ 292 µM)
Escherichia coli
  MIC: 125 mg/L (≈ 292 µM)
Vibrio cholerae
  MIC: 250 mg/L (≈ 584 µM)
[1]
  inhibition at 6 µg/mL: 60%
Streptococcus pneumoniae
  MIC: 250 mg/L (≈ 584 µM)

## O=C1CCSC(c2ccc(Cl)cc2)N1CCCCNc1ccnc2cc(Cl)ccc12 (configuration not stated)
Salmonella typhi
  MIC: 125 mg/L (≈ 271 µM)
Bacillus subtilis
  MIC: 250 mg/L (≈ 543 µM)
Plasmodium falciparum
  IC50: 0.14 mg/L (≈ 0.304 µM)
Clostridium tetani
  MIC: 125 mg/L (≈ 271 µM)
Escherichia coli
  MIC: 250 mg/L (≈ 543 µM)
Vibrio cholerae
  MIC: 62.5 mg/L (≈ 136 µM)
[1]
  inhibition at 6 µg/mL: 60%
Streptococcus pneumoniae
  MIC: 250 mg/L (≈ 543 µM)
